Reference: patent US20180353501A1 (Arvinas, Inc., priority 2017, published 2018)

Key:
cMET = molecular target: T1, cMET (Homo sapiens, UniProt P08581); assay: Western blot examination of protein degradation, MDA-MB-231 cells; assay type: cell-based; settings: 24 hours
T1 construct: endogenous in cells; host or cells: MDA-MB-231
Protocol: FIG. 4. Illustrates the degradation of Met by exemplary VHL (Examples 1 and 6) and cereblon (Examples 2 and 8) PROTACS.
Western Blot Examination of Protein Degradation.
MDA-MB-231 cells (1-1.5×10^6) were treated for 24 hours with the indicated compounds solubilized in DMSO. The cells were collected at 300 g for 3 minutes. The cells were then lysed in lysis buffer (25 mM Tris, 1% Triton, 0.25% deoxycholic acid) with Roche protease inhibitor complete cocktail and phosphatase inhibitors (10 mM sodium fluoride, 10 mM sodium pyrophosphate, 1 mM sodium orthovanadate and 20 mM β-glycerophosphate). The total protein concentrations were determined by Pierce BCA Protein Assay and 30-50 μg of protein was loaded onto 10% Tris-Glycine gels. After standard gel electrophoresis, the separated proteins were transferred to nitrocellulose by wet transfer. The immunoblots were then processed by standard procedures and incubated with the respective antibodies. Band intensities were quantified by Bio-Rad's Image Lab software.

FLAG-p38δ = molecular target: T2, FLAG-p38δ (Homo sapiens, UniProt O15264); assay: TUBE1 immunoprecipitation of polyubiquitinated p38δ, HeLa cells; assay type: cell-based; settings: 1 μM, 3 hours
T2 construct: expressed in transfected cells; host or cells: HeLa cells, transient transfection with Lipofectamine 2000
T2 sequence (O15264 1-365): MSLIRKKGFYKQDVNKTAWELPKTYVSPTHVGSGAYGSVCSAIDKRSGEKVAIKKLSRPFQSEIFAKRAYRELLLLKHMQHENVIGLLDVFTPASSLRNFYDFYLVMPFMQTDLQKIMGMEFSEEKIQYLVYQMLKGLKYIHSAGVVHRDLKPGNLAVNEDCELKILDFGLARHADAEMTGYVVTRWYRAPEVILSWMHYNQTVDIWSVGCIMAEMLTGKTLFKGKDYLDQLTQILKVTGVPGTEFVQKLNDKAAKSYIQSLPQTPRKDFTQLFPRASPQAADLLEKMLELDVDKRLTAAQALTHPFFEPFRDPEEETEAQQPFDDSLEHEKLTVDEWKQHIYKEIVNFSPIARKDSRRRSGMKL
Protocol: FIG. 18. Exemplary compound 46 induces polyubiquitination of p38δ. (A) HeLa cells were co-transfected with HA-Ub and FLAG p38δ and treated with vehicle (DMSO), 1 μM of compound 50, or 1 μM of compound 46 for 3 hours. Lysates were immunoprecipitated with tandem ubiquitin binding entity (TUBE1) agarose beads and assessed by western blots detecting FLAG (p38δ). TUBE1 binds tetra ubiquitin chains with high affinity, thereby enriching for polyubiquitinated proteins. In this assay, HA (Ub) serves as an immunoprecipitation control for poly-Ub TUBE1 enrichment.
Based on these exemplary compound 50-induced and exemplary compound 46-induced ternary complex affinity differences, both in vitro and in cells, whether they were predictive of PROTAC-induced p38δ cellular ubiquitination was examined.
TUBE1 immunoprecipitation experiments were carried out exactly as described above, except for the fact that 1 mg of normalized HeLa lysate was loaded onto 20 μL TUBE1 agarose (LifeSensors) resin per sample.

His-p38δ = molecular target: T3, His-p38δ (Homo sapiens, UniProt O15264); assay: SPR binary affinity, compound on immobilized His-p38δ; assay type: binding; settings: for Kd: His-p38δ immobilized, read-out: PROTAC:p38δ Kd
T3 construct: encoding a region spanning amino acids 1-365 was PCR-amplified; made in house; host or cells: E. coli BL21-CodonPlus(DE3)-RIPL
T3 sequence (O15264 1-365): T2 sequence (O15264 1-365)
Protocol: FIGS. 16A, 16B, and 16C. SPR curves assessing binary and ternary interactions. […] Equimolar p38δ:PROTAC mixtures were injected onto immobilized GST-VBC and allowed to dissociate overtime. […] See Table 12 for a summary of the binary and ternary affinity and kinetic measurements. […] Next, with the same setup, equimolar p38δ:PROTAC dilutions were successively injected onto immobilized VHL for 60 seconds, prior to monitoring complex dissociation for the remaining 300 seconds. This SPR strategy enabled us to determine effective ternary affinities for a given p38δ:PROTAC:VHL complex and compare the relative affinity change that occurs between VHL:PROTAC when p38δ is present in the mixture. […] This p38δ region was cloned into a pET28a vector containing an N-terminal His6 tag using NheI and BamHI restriction sites. As before, BL21-CodonPlus(DE3)-RIPL E. coli cells (Agilent Technologies) were transformed with pET[…]6-p38delta and were selected in LB medium containing kanamycin (50 μg mL^1), chloramphenicol (15 μg mL^-1), and spectinomycin (50 μg mL^-1) at 37° C. until OD600=0.8. […] Pure fractions of p38δ were pooled, concentrated to 3 mg mL^-1, aliquoted, and flash-frozen before storing at -80° C. SPR experiments were conducted on a Biacore 3000 instrument (GE Healthcare) at room temperature. GST antibody was immobilized through direct amination onto a carboxymethylated dextran surface (CM5) and GST-VBC was captured on the CM5 surface. This prepared surface was equilibrated over three hours in running buffer (10 mM HEPES buffer pH 7.4, 150 mM NaCl, 0.4 mg mL^-1 BSA, 0.005% P20, 2% DMSO). All compounds were prepared in 100% DMSO stock plates with a top concentration of 500 μM in a 3× serial dilution. Exemplary compounds were transferred from the stock plate to the assay plate and diluted into running buffer without DMSO. Equimolar concentration of target protein was added to corresponding compound wells. All exemplary compounds were run as a twelve point-concentration series with a final assay top concentration of 50 μM to measure p38δ:PROTAC and VHL:PROTAC binding and top concentration of 5 μM to measure p38δ:PROTAC:VHL binding. All exemplary compounds were injected for 60 seconds and allowed to dissociate for 300 seconds. Data analysis was performed in Scrubber 2 (BioLogic Software). Blanks from reference flow cell containing immobilized GST-VBC were subtracted to correct for noise and data was solvent-corrected against a standard DMSO curve.

T1 sequence (P08581 25-1390): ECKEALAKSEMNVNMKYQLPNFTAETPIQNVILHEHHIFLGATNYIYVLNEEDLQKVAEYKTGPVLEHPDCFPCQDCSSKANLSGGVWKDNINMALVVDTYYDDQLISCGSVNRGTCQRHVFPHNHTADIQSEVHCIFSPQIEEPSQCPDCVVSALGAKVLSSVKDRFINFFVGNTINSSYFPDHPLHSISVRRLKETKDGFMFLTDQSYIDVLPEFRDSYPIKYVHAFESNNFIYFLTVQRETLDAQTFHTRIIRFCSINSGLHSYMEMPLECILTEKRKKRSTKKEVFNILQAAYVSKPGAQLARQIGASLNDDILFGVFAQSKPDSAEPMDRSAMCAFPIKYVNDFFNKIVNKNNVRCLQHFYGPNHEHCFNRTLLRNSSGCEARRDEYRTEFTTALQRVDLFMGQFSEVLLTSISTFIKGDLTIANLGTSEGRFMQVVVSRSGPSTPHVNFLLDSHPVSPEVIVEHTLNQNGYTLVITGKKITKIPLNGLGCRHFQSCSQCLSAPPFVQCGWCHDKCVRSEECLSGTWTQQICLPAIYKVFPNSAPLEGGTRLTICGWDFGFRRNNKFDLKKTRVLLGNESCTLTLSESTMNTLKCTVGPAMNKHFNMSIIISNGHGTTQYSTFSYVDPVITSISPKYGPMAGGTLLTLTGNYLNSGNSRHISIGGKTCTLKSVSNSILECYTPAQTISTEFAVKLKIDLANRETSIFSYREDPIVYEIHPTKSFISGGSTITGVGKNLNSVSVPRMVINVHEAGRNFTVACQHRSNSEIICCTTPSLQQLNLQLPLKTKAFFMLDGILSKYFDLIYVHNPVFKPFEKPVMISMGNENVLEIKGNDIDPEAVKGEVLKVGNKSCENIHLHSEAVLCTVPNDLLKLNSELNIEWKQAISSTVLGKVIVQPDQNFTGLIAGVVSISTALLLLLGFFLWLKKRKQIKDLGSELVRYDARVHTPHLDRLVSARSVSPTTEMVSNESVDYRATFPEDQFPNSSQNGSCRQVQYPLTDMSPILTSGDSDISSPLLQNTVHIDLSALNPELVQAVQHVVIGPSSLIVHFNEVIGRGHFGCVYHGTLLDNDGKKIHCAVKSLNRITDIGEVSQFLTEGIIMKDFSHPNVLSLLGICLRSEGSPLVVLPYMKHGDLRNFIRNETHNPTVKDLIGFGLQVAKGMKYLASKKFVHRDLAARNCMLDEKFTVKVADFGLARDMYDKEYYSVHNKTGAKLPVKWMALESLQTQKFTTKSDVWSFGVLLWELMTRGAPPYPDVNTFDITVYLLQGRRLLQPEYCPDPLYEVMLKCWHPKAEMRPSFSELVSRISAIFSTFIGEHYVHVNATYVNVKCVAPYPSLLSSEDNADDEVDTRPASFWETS

Row | Compound | degradation of c-Met (western blot) (cMET) | TUBE1-reactivity (poly-Ub p38δ) (FLAG-p38δ) | loss of affinity for p38δ compared to the PTM (foretinib) (His-p38δ) | Kd (His-p38δ)
1 | COc1cc2c(Oc3ccc(NC(=O)C4(C(=O)Nc5ccc(F)cc5)CC4)cc3F)ccnc2cc1OCCCOCCCOCCC(=O)N[C@H](C(=O)N1C[C@H](O)C[C@H]1C(=O)NCc1ccc(-c2scnc2C)cc1)C(C)(C)C [Example 1] | significant protein degradation of c-Met |  |  | 
2 | COc1cc2c(Oc3ccc(NC(=O)C4(C(=O)Nc5ccc(F)cc5)CC4)cc3F)ccnc2cc1OCCOCCOCCOc1cc(-c2scnc2C)ccc1CNC(=O)[C@@H]1C[C@@H](O)CN1C(=O)[C@H](C(C)C)N1Cc2ccccc2C1=O [compound 46] |  | increased TUBE1-reactivity | about 2 fold | 550 nM
3 | COc1cc2c(Oc3ccc(NC(=O)C4(C(=O)Nc5ccc(F)cc5)CC4)cc3F)ccnc2cc1OCCCCOCCCCOCC(=O)N[C@H](C(=O)N1C[C@H](O)C[C@H]1C(=O)NCc1ccc(-c2scnc2C)cc1)C(C)(C)C [compound 50, N-(3-fluoro-4-((7-(4-(4-(2-(((S)-1-((2S,4R)-4-hydroxy-2-((4-(4-methylthiazol-5-yl)benzyl)carbamoyl)pyrrolidin-1-yl)-3,3-dimethyl-1-oxobutan-2-yl)amino)-2-oxoethoxy)butoxy)buto-xy)-6-methoxyquinolin-4-yl)oxy)phenyl)-N-(4-fluorophenyl)cyclopropane-1,1-dicarboxa-mide] |  |  | about 2 fold | 500 nM
